Results from ChEMBL document CHEMBL1201862, “PubChem BioAssay data set” (2004).
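Exposure lasted 48 hours, with cells grown in 96-well plates and compounds tested at five concentrations. GI50 is the concentration that inhibits growth by half.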 Active and inactive are the calls of the source. Rule as the data show it: active = GI50 up to about 1.1 µM and inactive = higher.

Assays:
Experiment in all cases: NCI-60 cell line screen, 48 h
UO-31 = system: UO-31
UACC-62 = system: UACC-62
CAKI-1 = system: CAKI-1
A549 = system: A549
Malme-3M = system: Malme-3M
OVCAR-8 = system: OVCAR-8
LOX IMVI = system: LOX IMVI
OVCAR-5 = system: OVCAR-5
ACHN = system: ACHN
K562 = system: K562
SK-MEL-28 = system: SK-MEL-28
U-251 = system: U-251
EKVX = system: EKVX
OVCAR-3 = system: OVCAR-3
RXF 393 = system: RXF 393
HCC 2998 = system: HCC 2998
HOP-92 = system: HOP-92

SMILES | GI50 (UO-31) | GI50 (UACC-62) | GI50 (CAKI-1) | GI50 (A549) | GI50 (Malme-3M) | GI50 (OVCAR-8) | GI50 (LOX IMVI) | GI50 (OVCAR-5) | GI50 (ACHN) | GI50 (K562) | GI50 (SK-MEL-28) | GI50 (U-251) | GI50 (EKVX) | GI50 (OVCAR-3) | GI50 (RXF 393) | GI50 (HCC 2998) | GI50 (HOP-92)
COc1cccc(NC(=O)C(=O)C2C=CCS2(=O)=O)c1 (stereo unspecified) | > 100 µM (inactive) | > 100 µM (inactive) | > 100 µM (inactive) | > 100 µM (inactive) | > 100 µM (inactive) | 53.8 µM (inactive) | > 100 µM (inactive) | > 100 µM (inactive) | > 100 µM (inactive) | > 100 µM (inactive) | > 100 µM (inactive) | > 100 µM (inactive) | > 100 µM (inactive) | > 100 µM (inactive) | > 100 µM (inactive) | > 100 µM (inactive) | 
C#CCNC(=O)NCCCCC(NC(=O)OCc1ccccc1)C(=O)OCc1ccccc1 (stereo unspecified) | > 48.4 µM (inactive) | 63.5 µM (inactive) | > 59.4 µM (inactive) | 72.4 µM (inactive) | > 100 µM (inactive) | 48.4 µM (inactive) | 39.1 µM (inactive) | > 100 µM (inactive) | 27.7 µM (inactive) | > 66.2 µM (inactive) | > 100 µM (inactive) | > 64.6 µM (inactive) | > 100 µM (inactive) | 59.7 µM (inactive) | > 100 µM (inactive) | 37.9 µM (inactive) | > 72.4 µM (inactive)
O=C(CCc1nnc(S)[nH]1)Nc1cc(Cl)c(Cl)cc1Cl | > 100 µM (inactive) | > 100 µM (inactive) | > 100 µM (inactive) | > 100 µM (inactive) | > 100 µM (inactive) | > 100 µM (inactive) | > 100 µM (inactive) | > 100 µM (inactive) | > 100 µM (inactive) | > 100 µM (inactive) | > 100 µM (inactive) | > 100 µM (inactive) |  | > 100 µM (inactive) | > 100 µM (inactive) | > 100 µM (inactive) | > 100 µM (inactive)
O=C(Nc1cc(Cl)c(Cl)cc1Cl)C(=O)C1C(=O)NC(=S)NC1=O | > 100 µM (inactive) | > 100 µM (inactive) | > 100 µM (inactive) | > 100 µM (inactive) | > 100 µM (inactive) | > 100 µM (inactive) | > 100 µM (inactive) | > 100 µM (inactive) | > 100 µM (inactive) | > 100 µM (inactive) | > 100 µM (inactive) | > 100 µM (inactive) | > 100 µM (inactive) |  | > 100 µM (inactive) | > 100 µM (inactive) | > 100 µM (inactive)
[N-]=[N+]=N/C1=C/CCCCC(=O)C1 | > 100 µM (inactive) | > 100 µM (inactive) | > 100 µM (inactive) | > 100 µM (inactive) | > 100 µM (inactive) | > 100 µM (inactive) | > 100 µM (inactive) | > 100 µM (inactive) |  | > 100 µM (inactive) | > 100 µM (inactive) |  | > 100 µM (inactive) |  | > 100 µM (inactive) | > 100 µM (inactive) | 51.4 µM (inactive)
O=[N+]([O-])c1cc(C(F)(F)F)cc([N+](=O)[O-])c1CCl | 7.87 µM (inactive) | 0.336 µM (active) | 3.15 µM (inactive) | 9.53 µM (inactive) | 3.23 µM (inactive) | 2.14 µM (inactive) | 0.0826 µM (active) | 5.3 µM (inactive) | 14.5 µM (inactive) | 0.18 µM (active) | 4.84 µM (inactive) | 3.61 µM (inactive) | 6.81 µM (inactive) | 5.24 µM (inactive) | 1.73 µM (inactive) |  | 4.9 µM (inactive)
CCOC(=O)C1C=C2O[C@@H]3OC4(CCCCC4)O[C@@H]3C2C2C(=O)CCC(=O)[C@@]12C(=O)OC (stereo partly specified) | > 100 µM (inactive) | > 100 µM (inactive) | > 100 µM (inactive) | > 100 µM (inactive) | > 100 µM (inactive) | > 100 µM (inactive) | > 100 µM (inactive) | > 100 µM (inactive) | > 100 µM (inactive) | > 100 µM (inactive) | > 100 µM (inactive) | > 100 µM (inactive) | > 100 µM (inactive) | 82.4 µM (inactive) |  | > 100 µM (inactive) | > 100 µM (inactive)
[O-][n+]1c2cc3c(cc2[n+]([O-])c2c(O)cccc21)CN(CCN1CCOCC1)C3 | 10.6 µM (inactive) | 24.8 µM (inactive) | 48.9 µM (inactive) | 34.9 µM (inactive) | 48.9 µM (inactive) | 12.1 µM (inactive) |  | 38 µM (inactive) | 5.83 µM (inactive) | 12 µM (inactive) | > 100 µM (inactive) | 12.1 µM (inactive) | 14.9 µM (inactive) | 18.7 µM (inactive) | 16.1 µM (inactive) |  | 5.7 µM (inactive)
CC1CCC2(OC1)OC1CC3C4CCC5CC(O)CCC5(C)C4CC(=O)OC3(C)C1C2C (stereo unspecified) | > 100 µM (inactive) | > 100 µM (inactive) | > 100 µM (inactive) | > 100 µM (inactive) | > 100 µM (inactive) | > 100 µM (inactive) | > 100 µM (inactive) | > 100 µM (inactive) | > 100 µM (inactive) | > 100 µM (inactive) | > 100 µM (inactive) | > 100 µM (inactive) | > 100 µM (inactive) | > 100 µM (inactive) | > 100 µM (inactive) | > 100 µM (inactive) | > 100 µM (inactive)
CC(=O)O[C@H]1C=CC23OC(=O)[C@]1(C)[C@H]2[C@H](C(=O)O)C12CC(=O)[C@@](CO)(CC[C@H]13)C2 | > 100 µM (inactive) | 75.7 µM (inactive) | > 100 µM (inactive) | > 100 µM (inactive) |  | > 100 µM (inactive) | > 100 µM (inactive) | > 100 µM (inactive) | > 100 µM (inactive) | > 100 µM (inactive) | > 100 µM (inactive) | > 100 µM (inactive) | > 100 µM (inactive) | > 100 µM (inactive) | > 100 µM (inactive) | > 100 µM (inactive) | > 100 µM (inactive)
O=C(CC1(O)C(=O)Nc2ccc([N+](=O)[O-])cc21)c1ccc(Br)cc1 (stereo unspecified) | 45.1 µM (inactive) | 47.2 µM (inactive) |  | > 100 µM (inactive) | > 100 µM (inactive) | 39.8 µM (inactive) | 60.4 µM (inactive) | > 100 µM (inactive) | 56.6 µM (inactive) | 54.6 µM (inactive) | > 100 µM (inactive) | 22.3 µM (inactive) | > 100 µM (inactive) | 43 µM (inactive) | 28.6 µM (inactive) | > 100 µM (inactive) | 
O=C(/C=C/c1ccc(OCCCOc2ccc(/C=C/C(=O)c3ccc(Cl)cc3)cc2)cc1)c1ccc(Cl)cc1 |  | > 100 µM (inactive) | > 100 µM (inactive) | > 100 µM (inactive) | > 100 µM (inactive) | > 100 µM (inactive) | > 100 µM (inactive) | > 100 µM (inactive) | > 100 µM (inactive) | > 100 µM (inactive) | > 100 µM (inactive) | > 100 µM (inactive) | > 100 µM (inactive) | > 100 µM (inactive) | > 100 µM (inactive) | > 100 µM (inactive) | > 100 µM (inactive)
COC(=O)/C=C(C)/C=C/c1c(C)c(C(C)=O)c(C)n1C | 61.1 µM (inactive) | 96.2 µM (inactive) | 63.5 µM (inactive) | > 100 µM (inactive) | > 100 µM (inactive) | > 100 µM (inactive) | > 100 µM (inactive) | > 100 µM (inactive) | > 100 µM (inactive) | 32.1 µM (inactive) |  | > 100 µM (inactive) | 88.5 µM (inactive) | > 100 µM (inactive) |  | > 100 µM (inactive) | 18.3 µM (inactive)
COC(=O)C12C3C4C1C1C2C3C41C(=O)N(C(C)C)C(C)C (stereo unspecified) | > 100 µM (inactive) | > 100 µM (inactive) |  | > 100 µM (inactive) | > 100 µM (inactive) | > 100 µM (inactive) |  | > 100 µM (inactive) | > 100 µM (inactive) | > 100 µM (inactive) | > 100 µM (inactive) | > 100 µM (inactive) | > 100 µM (inactive) | > 100 µM (inactive) |  | > 100 µM (inactive) | > 100 µM (inactive)
O=C(CC(C(=O)c1ccsc1)c1cccs1)c1cccs1 (stereo unspecified) | 28.1 µM (inactive) | 75.7 µM (inactive) |  | 42.6 µM (inactive) | > 100 µM (inactive) | 83.8 µM (inactive) | 68.2 µM (inactive) | > 100 µM (inactive) | 99.1 µM (inactive) | 73.5 µM (inactive) | > 100 µM (inactive) | > 100 µM (inactive) | 42.5 µM (inactive) | 38.7 µM (inactive) | > 100 µM (inactive) | > 100 µM (inactive) | > 100 µM (inactive)
Nc1ccn(CCNCCn2cnc3nc(N)[nH]c(=O)c32)c(=O)n1 | > 100 µM (inactive) |  |  | > 100 µM (inactive) | > 100 µM (inactive) | > 100 µM (inactive) | > 100 µM (inactive) | > 100 µM (inactive) | > 100 µM (inactive) | > 100 µM (inactive) | > 100 µM (inactive) | > 100 µM (inactive) | > 100 µM (inactive) | > 100 µM (inactive) | > 100 µM (inactive) | > 100 µM (inactive) | > 100 µM (inactive)
COc1cccc(NC(=O)C(C)(C)C)c1C=O | 34.3 µM (inactive) | 74.3 µM (inactive) | 56.6 µM (inactive) | 71.1 µM (inactive) | > 100 µM (inactive) | 57.9 µM (inactive) | 46.1 µM (inactive) | 62.5 µM (inactive) | 56.2 µM (inactive) | 26.9 µM (inactive) | > 100 µM (inactive) | 36.6 µM (inactive) | 35.3 µM (inactive) | 37 µM (inactive) |  | 92 µM (inactive) | 54 µM (inactive)
